Results: patent publication US8163779B2, “Glucokinase activators” (Takeda San Diego, Inc., priority 2006, dated 2012)
pEC50: −log10 of the molar value. Structures can show the parent of a compound that is named as a salt.

Biological target: T1, glucokinase (GK) (Homo sapiens, UniProt P35557)
T1 construct: I.D. No. 1 corresponds to residues 12-465 of glucokinase; made in house; host or cells: E. coli DH10b-T1r
T1 sequence (P35557 with tags, fused parts or gaps isoform P35557-2): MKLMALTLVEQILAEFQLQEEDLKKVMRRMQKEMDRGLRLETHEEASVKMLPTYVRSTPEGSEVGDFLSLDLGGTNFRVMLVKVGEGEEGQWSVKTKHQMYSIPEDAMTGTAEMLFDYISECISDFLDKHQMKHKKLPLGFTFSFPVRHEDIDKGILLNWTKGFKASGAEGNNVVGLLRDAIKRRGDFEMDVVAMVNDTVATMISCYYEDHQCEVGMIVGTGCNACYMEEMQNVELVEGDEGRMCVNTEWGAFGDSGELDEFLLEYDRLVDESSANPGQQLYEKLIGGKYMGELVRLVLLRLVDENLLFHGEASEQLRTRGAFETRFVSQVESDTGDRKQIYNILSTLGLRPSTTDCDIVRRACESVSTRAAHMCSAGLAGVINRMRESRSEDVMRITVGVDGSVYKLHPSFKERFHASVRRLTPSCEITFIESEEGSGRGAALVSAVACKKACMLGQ
Assay: enzymatic glucokinase activity assay (ATP consumption, KinaseGlo luminescence)
Assay type: biochemical
Conditions: recombinant GK residues 12-465; 5 μM ATP, 5 mM Glucose; Kact = concentration that displays 50% of the maximal increase in GK activity; read-out: pKact
How it was run: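 Recombinant human glucokinase expressed in E. coli was run in 25 mM Hepes pH 7.2 with 10 mM MgCl2, 1 mM DTT, 5 μM ATP, 5 mM glucose and 2% DMSO for 60 min at room temperature. Remaining ATP was read by KinaseGlo luminescence; pKact came from non-linear curve fits.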

Row | SMILES | pEC50
1 | O=C(Nc1ncc(Cl)s1)C(CC1CCCCC1)n1ccc(C(=O)N2CCCC2)cc1=O (stereo not shown) [Example 129, N-(5-chlorothiazol-2-yl)-3-cyclohexyl-2-(2-oxo-4-(pyrrolidine-1-carbonyl)pyridin-1(2H)-yl)propanamide] | 4.80 to 5.80
2 | Cc1cc(S(=O)(=O)C2CCCC2)cc(=O)n1C(CC(C)C)C(=O)Nc1nccs1 (stereo not shown) [Example 11, 2-(4-(cyclopentylsulfonyl)-6-methyl-2-oxopyridin-1(2H)-yl)-4-methyl-N-(thiazol-2-yl)pentanamide] | > 5.80
3 | Cc1cc(S(=O)(=O)C2CC2)cc(=O)n1[C@@H](CC1CCOCC1)C(=O)Nc1ncc(Cl)s1 [Example 172, (S)-N-(5-chlorothiazol-2-yl)-2-(4-(cyclopropylsulfonyl)-6-methyl-2-oxopyridin-1(2H)-yl)-3-(tetrahydro-2H-pyran-4-yl)propanamide] | > 5.80
4 | Cc1cc(S(=O)(=O)C2CCCC2)cc(=O)n1C(Cc1ccc(O)cc1)C(=O)Nc1nccs1 (stereo not shown) [Example 28, 2-(4-(cyclopentylsulfonyl)-6-methyl-2-oxopyridin-1(2H)-yl)-3-(4-hydroxyphenyl)-N-(thiazol-2-yl)propanamide] | < 4.80
5 | CC(C)(O)c1cnc(NC(=O)C(CC2CCOCC2)n2ccc(S(=O)(=O)C3CC3)cc2=O)s1 (stereo not shown) [Example 117, 2-(4-(cyclopropylsulfonyl)-2-oxopyridin-1(2H)-yl)-N-(5-(2-hydroxypropan-2-yl)thiazol-2-yl)-3-(tetrahydro-2H-pyran-4-yl)propanamide] | < 4.80
6 | COc1ccc2nc(NC(=O)C(CC3CCOCC3)n3ccc(S(=O)(=O)CCCO)cc3=O)sc2n1 (stereo not shown) [Example 67, 2-(4-(3-hydroxypropylsulfonyl)-2-oxopyridin-1(2H)-yl)-N-(5-methoxythiazolo[5,4-b]pyridin-2-yl)-3-(tetrahydro-2H-pyran-4-yl)propanamide] | < 4.80
7 | Cc1cc(-c2cccc(NS(C)(=O)=O)c2)cc(=O)n1[C@@H](CC1CCCCC1)C(=O)Nc1nccs1 [Example 112, (S)-3-cyclohexyl-2-(6-methyl-4-(3-(methylsulfonamido)phenyl)-2-oxopyridin-1(2H)-yl)-N-(thiazol-2-yl)propanamide] | < 4.80
8 | COc1ccc(CC(C(=O)Nc2nccs2)n2c(C)cc(S(=O)(=O)C3CCCC3)cc2=O)cc1 (stereo not shown) [Example 27, 2-(4-(cyclopentylsulfonyl)-6-methyl-2-oxopyridin-1(2H)-yl)-3-(4-methoxyphenyl)-N-(thiazol-2-yl)propanamide] | < 4.80
9 | CN(C)C(=O)CN1CCN(Cc2cnc(NC(=O)C(CC3CCOCC3)n3ccc(S(=O)(=O)C4CC4)cc3=O)s2)CC1 (stereo not shown) [Example 150, 2-(4-(cyclopropylsulfonyl)-2-oxopyridin-1(2H)-yl)-N-(5-((4-(2-(dimethylamino)-2-oxoethyl)piperazin-1-yl)methyl)thiazol-2-yl)-3-(tetrahydro-2H-pyran-4-yl)propanamide] | < 4.80
10 | Cc1cnc(NC(=O)C(CC2CCOCC2)n2ccc(OCc3ccccc3)cc2=O)s1 (stereo not shown) [Example 55, 2-(4-(benzyloxy)-2-oxopyridin-1(2H)-yl)-N-(5-methylthiazol-2-yl)-3-(tetrahydro-2H-pyran-4-yl)propanamide] | 4.80 to 5.80
11 | Cc1cc(C)cc(CC(C(=O)Nc2ncc(Cl)s2)n2ccc(S(C)(=O)=O)cc2=O)c1 (stereo not shown) [Example 24, N-(5-chlorothiazol-2-yl)-3-(3,5-dimethylphenyl)-2-(4-(methylsulfonyl)-2-oxopyridin-1(2H)-yl)propanamide] | < 4.80
12 | COc1ccc2nc(NC(=O)[C@H](CC3CCOCC3)n3ccc(S(=O)(=O)C4CC4)cc3=O)sc2n1 [Example 49, (S)-2-(4-(cyclopropylsulfonyl)-2-oxopyridin-1(2H)-yl)-N-(5-methoxythiazolo[5,4-b]pyridin-2-yl)-3-(tetrahydro-2H-pyran-4-yl)propanamide] | > 5.80
13 | O=C(Nc1ccc(Cl)cn1)[C@H](CC1CCOCC1)n1ccc(S(=O)(=O)C2CCCC2)cc1=O [Example 42, (S)-N-(5-chloropyridin-2-yl)-2-(4-(cyclopentylsulfonyl)-2-oxopyridin-1(2H)-yl)-3-(tetrahydro-2H-pyran-4-yl)propanamide] | > 5.80
14 | Cc1occc1S(=O)(=O)c1cc(C)n(C(CC2CCCCC2)C(=O)Nc2ncc(Cl)s2)c(=O)c1 (stereo not shown) [Example 54, N-(5-chlorothiazol-2-yl)-3-cyclohexyl-2-(6-methyl-4-(2-methylfuran-3-ylsulfonyl)-2-oxopyridin-1(2H)-yl)propanamide] | > 5.80
15 | Cc1cc(S(=O)(=O)C2CC2)c(Cl)c(=O)n1[C@H](CC1CCCCC1)C(=O)Nc1ncc(Cl)s1 [Example 78, (R)-2-(3-chloro-4-(cyclopropylsulfonyl)-6-methyl-2-oxopyridin-1(2H)-yl)-N-(5-chlorothiazol-2-yl)-3-cyclohexylpropanamide] | 4.80 to 5.80
16 | Cc1cc(S(=O)(=O)C2CCCC2)cc(=O)n1[C@H](CC1CCOCC1)C(=O)Nc1ccc(Cl)cn1 [Example 167, (R)-N-(5-chloropyridin-2-yl)-2-(4-(cyclopentylsulfonyl)-6-methyl-2-oxopyridin-1(2H)-yl)-3-(tetrahydro-2H-pyran-4-yl)propanamide] | < 4.80
17 | Cc1cc(S(=O)(=O)C2CCS(=O)(=O)CC2)cc(=O)n1C(CC1CCCCC1)C(=O)Nc1ncc(Cl)s1 (stereo not shown) [Example 160, N-(5-chlorothiazol-2-yl)-2-(4-(1,1-dioxotetrahydrothiopyran-4-ylsulfonyl)-6-methyl-2-oxopyndin-1(2H)-yl)-3-cyclohexylpropanamide] | 4.80 to 5.80
18 | Cc1cc(S(=O)(=O)C2CCS(=O)(=O)CC2)cc(=O)n1[C@H](CC1CCCCC1)C(=O)Nc1ncc(Cl)s1 [Example 188, (R)-N-(5-chlorothiazol-2-yl)-2-(4-(1,1-dioxotetrahydrothiopyran-4-ylsulfonyl)-6-methyl-2-oxopyridin-1(2H)-yl)-3-cyclohexylpropanamide] | < 4.80
19 | Cc1cc(S(=O)(=O)C2CCCC2)cc(=O)n1C(CC1CCCCC1)C(=O)Nc1ccc(C(N)=O)cn1 (stereo not shown) [Example 6, 6-(3-cyclohexyl-2-(4-(cyclopentylsulfonyl)-6-methyl-2-oxopyridin-1(2H)-yl)propanamido)nicotinamide trifluoroacetic acid salt] | > 5.80
20 | O=C(Nc1nc2ccc(O)cc2s1)C(CC1CCOCC1)n1ccc(S(=O)(=O)C2CC2)cc1=O (stereo not shown) [Example 84, 2-(4-(cyclopropylsulfonyl)-2-oxopyridin-1(2H)-yl)-N-(6-hydroxybenzo[d]thiazol-2-yl)-3-(tetrahydro-2H-pyran-4-yl)propanamide] | < 4.80
21 | Cc1c(S(=O)(=O)C2CCCC2)cc(=O)n([C@@H](CC2CCOCC2)C(=O)Nc2ncc(F)s2)c1C [Example 151, (S)-2-(4-(cyclopentylsulfonyl)-5,6-dimethyl-2-oxopyridin-1(2H)-yl)-N-(5-fluorothiazol-2-yl)-3-(tetrahydro-2H-pyran-4-yl)propanamide] | > 5.80
22 | O=C(Nc1ncc(Cl)s1)[C@@H](CC1CCOCC1)n1ccc(S(=O)(=O)C2CC2)cc1=O [Example 29, (R)-N-(5-chlorothiazol-2-yl)-2-(4-(cyclopropylsulfonyl)-2-oxopyridin-1(2H)-yl)-3-(tetrahydro-2H-pyran-4-yl)propanamide] | < 4.80
23 | Cc1cc(S(C)(=O)=O)cc(=O)n1C(CC1CCCCC1)C(=O)Nc1nccs1 (stereo not shown) [Example 3, 3-cyclohexyl-2-(6-methyl-4-(methylsulfonyl)-2-oxopyridin-1(2H)-yl)-N-(thiazol-2-yl)propanamide trifluoroacetic acid salt] | 4.80 to 5.80
24 | O=C(Nc1ncc(F)s1)[C@@H](CC1CCOCC1)n1ccc(S(=O)(=O)C2CC2)cc1=O [Example 36, (R)-2-(4-(cyclopropylsulfonyl)-2-oxopyridin-1(2H)-yl)-N-(5-fluorothiazol-2-yl)-3-(tetrahydro-2H-pyran-4-yl)propanamide] | < 4.80
25 | CN(C)c1ccc2nc(NC(=O)C(CC3CCOCC3)n3ccc(S(=O)(=O)C4CC4)cc3=O)sc2n1 (stereo not shown) [Example 128, 2-(4-(cyclopropylsulfonyl)-2-oxopyridin-1(2H)-yl)-N-(5-(dimethylamino)thiazolo[5,4-b]pyridin-2-yl)-3-(tetrahydro-2H-pyran-4-yl)propanamide] | > 5.80
26 | Cc1cc(N2CCCC2)cc(=O)n1C(CC1CCCCC1)C(=O)Nc1nccs1 (stereo not shown) [Example 87, 3-cyclohexyl-2-(6-methyl-2-oxo-4-(pyrrolidin-1-yl)pyridin-1(2H)-yl)-N-(thiazol-2-yl)propanamide] | < 4.80
27 | Cc1cc(S(=O)(=O)C2CCS(=O)(=O)CC2)cc(=O)n1[C@@H](CC1CCCCC1)C(=O)Nc1ncc(Cl)s1 [Example 187, (S)-N-(5-chlorothiazol-2-yl)-2-(4-(1,1-dioxotetrahydrothiopyran-4-ylsulfonyl)-6-methyl-2-oxopyridin-1(2H)-yl)-3-cyclohexyipropanamide] | 4.80 to 5.80
28 | Cc1cc(S(=O)(=O)C2CCCC2)cc(=O)n1C(CC1CCOCC1)C(=O)Nc1nccs1 (stereo not shown) [Example 16, 2-(4-(cyclopentylsulfonyl)-6-methyl-2-oxopyridin-1(2H)-yl)-3-(tetrahydro-2H-pyran-4-yl)-N-(thiazol-2-yl)propanamide] | 4.80 to 5.80
